Measured values as given in US9145351B2, “Azole derivatives, methods for producing the same, intermediate thereof, agro-horticultural agents” (KUREHA CORPORATION, priority 2009, dated 2015).
Read-outs that look alike come from different tables or passages of the source.

Legend:
Tyromyces palustris = experiment: Plate medium assay, wood denaturing microorganism Oouzuratake (Experimental Example 5); format: cell-based; conditions: treatment at 50 mg/l, PDA plate medium; read-out: growth inhibition grade
Protocol: (§1) In this Experimental Example, the fungicidal effects of the inventive compounds on various phytopathogenic fungi for plants and hazardous microorganism for industrial materials were examined by the methods described below. Each inventive compound was dissolved in 2 ml of dimethyl sulfoxide. 0.6 ml of this solution was added to 60 nil of a PDA medium (potato dextrose agar medium) at about 60 degrees C., which was mixed thoroughly in a 100-ml conical flask, and poured into a dish, where it was solidified, thereby obtaining a plate medium containing the inventive compound at 50 mg/L and 5 mg/L. On the other hand, a subject microorganism previously cultured on a plate medium was cut out using a cork borer whose diameter was 4 mm, and inoculated to the test compound-containing plate medium described above. […] The growth degree of the microorganism on the test compound-containing plate medium thus observed was compared with the growth degree of the microorganism in the untreated group, and % mycelial growth inhibition was calculated by the following equation. R=100(dc-dt)/dc wherein R=% mycelial extension inhibition, dc=flora diameter in untreated plate, dt=flora diameter in treated plate. The results obtained as described above were evaluated as one of the 5 grades according to the following criteria.

Ustilago nuda = experiment: Plate medium fungicidal assay, barley loose smut U.n (Experimental Example 5); format: cell-based; conditions: Ustilago nuda
How it was run: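 Compounds in DMSO were mixed into molten PDA to give plates at 50 mg/L and 5 mg/L, then inoculated with a 4 mm mycelial plug. Colony diameter was compared with untreated plates as % inhibition = 100(dc−dt)/dc, scored on a 5-grade scale.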

Botritis cinerea = experiment: Plate medium fungicidal assay, gray mold B.c (Experimental Example 5); format: cell-based
How it was run: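 Compounds in DMSO were incorporated into PDA plate medium at 50 mg/L and 5 mg/L, then inoculated with 4 mm mycelial plugs of Botrytis cinerea. Colony diameter versus untreated plates gave % mycelial growth inhibition, R=100(dc−dt)/dc, scored on a 5-grade scale.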

Curvularia sp. = experiment: Plate medium assay, industrial material deteriorating microorganism, Curvularia (Experimental Example 5); format: cell-based; conditions: treatment at 50 mg/l, PDA plate medium, read-out: growth inhibition grade
Protocol: as §1

Fusarium oxysporum = experiment: Plate medium fungicidal assay, cucumber fusarium wilt F.c (Experimental Example 5); format: cell-based; conditions: Fusarium oxysporum
How it was run: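 Compound in DMSO mixed into PDA agar to give plates at 50 mg/L and 5 mg/L, then inoculated with 4 mm mycelial plug. Colony diameter compared with untreated plate as % mycelial growth inhibition, R=100(dc−dt)/dc, then scored on a 5-grade scale.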

Fusarium graminearum [1] = experiment: microbe, parasite or virus in culture; format: cell-based; conditions: Fusarium graminearum
Fusarium graminearum [2] = experiment: whole plant or invertebrate; format: in vivo; conditions: in Triticum aestivum, 168 h, read-out: Protective value
Alternaria alternata = experiment: Plate medium fungicidal assay, Alternaria blotch A.m (Experimental Example 5); format: cell-based; conditions: Alternaria alternata
How it was run: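 Compound dissolved in DMSO and mixed into PDA plates at 50 mg/L and 5 mg/L; 4 mm mycelial plug inoculated. Colony diameter compared with untreated plates, % mycelial growth inhibition = 100(dc−dt)/dc, converted to one of 5 grades.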

[3] = plate medium containing compound at 5 mg/L, read-out: Growth inhibition grade, U.n
[4] = plate medium containing compound at 50 mg/L, read-out: Growth inhibition grade, U.n
[5] = plate medium, 5 mg/L, read-out: growth inhibition grade U.n
[6] = plate medium, 50 mg/L, read-out: growth inhibition grade U.n
[7] = plate medium containing compound at 5 mg/L, read-out: Growth inhibition grade, B.c
[8] = plate medium containing compound at 50 mg/L, read-out: Growth inhibition grade, B.c
[9] = plate medium, 5 mg/L, read-out: growth inhibition grade B.c
[10] = plate medium, 50 mg/L, read-out: growth inhibition grade B.c
[11] = plate medium containing compound at 5 mg/L, read-out: Growth inhibition grade, F.c
[12] = plate medium containing compound at 50 mg/L, read-out: Growth inhibition grade, F.c
[13] = plate medium, 5 mg/L, read-out: growth inhibition grade F.c
[14] = plate medium, 50 mg/L, read-out: growth inhibition grade F.c
[15] = read-out: Growth inhibition grade, F.g
[16] = read-out: growth inhibition grade F.g
[17] = plate medium containing compound at 5 mg/L, read-out: Growth inhibition grade, A.m
[18] = plate medium containing compound at 50 mg/L, read-out: Growth inhibition grade, A.m
[19] = plate medium, 5 mg/L, read-out: growth inhibition grade A.m
[20] = plate medium, 50 mg/L, read-out: growth inhibition grade A.m

Structure (SMILES)	inhibition at 50 µg/mL (Tyromyces palustris) [%]	inhibition at 5 µg/mL (Ustilago nuda; [3]) [%]	inhibition at 50 µg/mL (Ustilago nuda; [4]) [%]	inhibition at 5 µg/mL (Ustilago nuda; [5]) [%]	inhibition at 50 µg/mL (Ustilago nuda; [6]) [%]	inhibition at 5 µg/mL (Botritis cinerea; [7]) [%]	inhibition at 50 µg/mL (Botritis cinerea; [8]) [%]	inhibition at 5 µg/mL (Botritis cinerea; [9]) [%]	inhibition at 50 µg/mL (Botritis cinerea; [10]) [%]	inhibition at 50 µg/mL (Curvularia sp.) [%]	inhibition at 5 µg/mL (Fusarium oxysporum; [11]) [%]	inhibition at 50 µg/mL (Fusarium oxysporum; [12]) [%]	inhibition at 5 µg/mL (Fusarium oxysporum; [13]) [%]	inhibition at 50 µg/mL (Fusarium oxysporum; [14]) [%]	inhibition at 5 µg/mL (Fusarium graminearum [1]; [15]) [%]	inhibition at 50 µg/mL (Fusarium graminearum [1]; [15]) [%]	pest or weed control at 100 µg/mL (Fusarium graminearum [2]) [%]	pest or weed control at 500 µg/mL (Fusarium graminearum [2]) [%]	inhibition at 5 µg/mL (Alternaria alternata; [17]) [%]	inhibition at 50 µg/mL (Alternaria alternata; [18]) [%]	also measured
C[C@]1(CCl)CC[C@@H](Cc2ccccc2)[C@]1(O)Cn1cncn1 (racemic) [Compound I-73, (1RS,2SR,5SR)-2-chloromethyl-5-benzyl-2-methyl-1-(1H-1,2,4-triazol-1-ylmethyl)cyclopentanol]	60 to 80	> 80	> 80	> 80	> 80	> 80	> 80	> 80	> 80	60 to 80	> 80	> 80	> 80	> 80	> 80	> 80	≥ 80	≥ 90	> 80	> 80	inhibition at 5 µg/mL (Fusarium graminearum [1]; [16]): > 80%; inhibition at 50 µg/mL (Fusarium graminearum [1]; [16]): > 80%; inhibition at 5 µg/mL (Alternaria alternata; [19]): > 80%; inhibition at 50 µg/mL (Alternaria alternata; [20]): > 80%
C[C@]1(CCl)CC[C@@H](Cc2cccc(Cl)c2)[C@]1(O)Cn1cncn1 (racemic) [Compound I-74, (1RS,2SR,5SR)-5-(3-chlorobenzyl)-2-chloromethyl-2-methyl-1-(1H-1,2,4-triazol-1-ylmethyl)cyclopentanol]	60 to 80	> 80	> 80	–	–	> 80	> 80	–	–	60 to 80	> 80	> 80	–	–	> 80	> 80	≥ 80	≥ 90	60 to 80	> 80	–
CC(Cl)=C[C@@]1(C)CC[C@@H](Cc2ccc(Cl)cc2)[C@]1(O)Cn1cncn1 (racemic) [Compound I-15, (1RS,2RS,5SR)-5-(4-chlorobenzyl)-2-(2-chloropropenyl)-2-methyl-1-(1H-1,2,4-triazol-1-ylmethyl)cyclopentanol]	60 to 80	> 80	> 80	–	–	> 80	> 80	–	–	60 to 80	> 80	> 80	–	–	> 80	> 80	–	≥ 90	> 80	> 80	–
O[C@]1(Cn2cncn2)[C@@H](Cc2ccc(Cl)cc2)CC[C@@H]1C(F)(F)F (racemic) [Compound I-365, (1RS,2SR,5RS)-5-(4-chlorobenzyl)-2-trifluoromethyl-1-(1H-1,2,4-triazol-1-ylmethyl)cyclopentanol]	60 to 80	–	–	20 to 40	> 80	–	–	< 20	> 80	60 to 80	–	–	20 to 40	> 80	–	–	–	≥ 90	–	–	inhibition at 5 µg/mL (Fusarium graminearum [1]; [16]): 20 to 40%; inhibition at 50 µg/mL (Fusarium graminearum [1]; [16]): > 80%; inhibition at 5 µg/mL (Alternaria alternata; [19]): 20 to 40%; inhibition at 50 µg/mL (Alternaria alternata; [20]): > 80%
C[C@]1(CBr)CC[C@@H](Cc2ccc(Cl)cc2)[C@]1(O)Cn1cncn1 (racemic) [Compound I-25, (1RS,2SR,5SR)-2-bromomethyl-5-(4-chlorobenzyl)-2-methyl-1-(1H-1,2,4-triazol-1-ylmethyl)cyclopentanol]	60 to 80	40 to 60	> 80	–	–	> 80	> 80	–	–	60 to 80	> 80	> 80	–	–	> 80	> 80	≥ 80	≥ 90	60 to 80	> 80	–
